Measurements reported in ChEMBL document CHEMBL5038569, “Targeting RECQL5 Functions, by a Small Molecule, Selectively Kills Breast Cancer in Vitro and in Vivo” (J Med Chem, 2021).
The source made the active and inactive calls. No cut-off for these calls is given here.

Columns and labels:
[1] = tested on: MCF7; assay: Cytotoxicity against human MCF7 cells expressing wild type RECQL5 assessed as cell growth inhibition measured after 72 hrs by MTT assay; format: functional; details: dose 6-50 µM
[2] = tested on: MCF7; assay: Cytotoxicity against RECQL5 knock out human MCF7 cells assessed as cell growth inhibition measured after 72 hrs by MTT assay; format: functional; details: dose 6-50 µM
[3] = organism: Homo sapiens; assay: Inhibition of full length His-tagged human RECQL5 expressed in Escherichia coli incubated for 15 mins by fluorescence based assay

Row | inhibition [3] | Compound | Activity [1] | Activity [2]
1 |  | COc1ccc(NC(=O)N[C@@H](c2ccccc2)c2nnc(SCc3ccccc3)o2)cc1 | inactive | inactive
2 |  | O=C(NCc1nnc(SCc2ccccc2)o1)Nc1cc(C(F)(F)F)cc(C(F)(F)F)c1 | Dose-Dependent Effect | Dose-Dependent Effect
3 | inactive | O=C(Nc1cc(C(F)(F)F)cc(C(F)(F)F)c1)N[C@@H](Cc1ccccc1)c1nnc(SCc2ccccc2)o1 | Dose-Dependent Effect | Dose-Dependent Effect
4 |  | O=C(Nc1ccc([N+](=O)[O-])cc1)N[C@@H](c1ccccc1)c1nnc(SCc2ccccc2)o1 | Dose-Dependent Effect | Dose-Dependent Effect
5 |  | COc1ccc(NC(=O)N[C@@H](Cc2ccccc2)c2nnc(SCc3ccccc3)o2)cc1 | Dose-Dependent Effect | Dose-Dependent Effect
6 |  | Cc1ccc(NC(=O)N[C@@H](Cc2ccccc2)c2nnc(SCc3ccccc3)o2)cc1 | Dose-Dependent Effect | Dose-Dependent Effect
7 |  | O=C(Nc1ccc([N+](=O)[O-])cc1)N[C@@H](Cc1ccccc1)c1nnc(SCc2ccccc2)o1 | Dose-Dependent Effect | Dose-Dependent Effect
8 |  | Cc1ccc(NC(=O)N[C@@H](c2ccccc2)c2nnc(SCc3ccccc3)o2)cc1 | Dose-Dependent Effect | Dose-Dependent Effect
